Legend:
Assay type in all cases: cell-based
TNF-α = experiment: Whole bovine blood assay, LPS-induced TNF-α; settings: fresh whole bovine blood, LPS stimulant; top drug concentration 250 μM
Outline: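 Fresh heparinized bovine whole blood was preincubated with compound 4 h at 37 °C, then stimulated with LPS (final 1 μg/mL) for 18 h at 37 °C. Plasma TNF-α was quantified by MSD U-Plex chemiluminescent immunoassay, normalized to total protein (BCA), and IC50 taken for LPS-induced TNF-α inhibition.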

IL-6 = experiment: Whole bovine blood assay, LPS-induced IL-6; settings: fresh whole bovine blood, LPS stimulant; top drug concentration 250 μM
IL-1β = experiment: Whole bovine blood assay, LPS-induced IL-1β (inhibition / overstimulation); settings: drug concentration giving overstimulation (OS) of LPS-induced IL-1β, top concentration 250 μM
Experimental: Whole Blood Assay-Fresh whole bovine blood samples were collected into heparinized vacutainer tubes. Assay plates were prepared with 25 μL of drug diluted in PBS at varying concentration in 96 round bottom wells, then 225 μL of blood was added and plates incubated at 37° C. for 4 hours. Cells were stimulated with LPS (or PBS for controls) by adding 25 μL to the plates at a final concentration of 1 μg/mL and incubated at 37° C. for 18 hours. To collect plasma, plates were centrifuged at 2,000×g for 10 minutes and 100 μL of supernatant was transferred to a 96 well polypropylene plate that was sealed and stored at −80° C. Samples were assayed for cytokines using the Meso Scale Discovery (MSD) platform (described below). This same MSD platform was used to assess cytokines in the plasma collected directly from drug treated animals.
Cytokine Detection—An MSD U-Plex cytokine assay was developed following the MSD U-Plex protocol guide and included biotinylated capture antibodies against: bovine Interleukin (IL)-1β (Biorad), bovine IL-6 (R&D Systems) and bovine tumor necrosis factor (TNF)-α (R&D Systems). The anti-IL-1β antibody was biotinylated using EZ-Link Sulfo-NHS-Biotin (Thermo Scientific) at a challenge ratio of 1:20 according to manufacturer instructions. Assay calibrators (Kingfisher) were diluted to a concentration of […] in control lithium heparin plasma, followed by 4-fold serial dilutions into plasma. The detection antibodies were sulfo-tagged following the MSD quick guide conjugation protocol using a challenge ratio of 1:20. Antibodies were used at the following concentrations: anti-IL-1β at 1 μg/mL, anti-IL-6 at 1 μg/mL and anti-TNF-α at 0.5 μg/mL. Cytokines were quantified according to manufacturer's instructions using a chemiluminescent readout. In brief, 0.5 mL of all biotinylated antibodies were diluted to 10 μg/mL with Diluent 100 and paired to their respective linkers by adding 750 μL of supplied Linker solution and incubated for 30 minutes followed by addition of Stop solution for another 30 minutes. The linked antibodies were then diluted 10-fold into Stop solution. Plates were coated by adding 50 μL of antibody solutions per well and incubated covered and shaking for 1 hour at room temperature. Plates were washed three times with PBS/Tween20 prior to samples or standards being added at 30 μL per well and incubated as above. Plates were washed three times before detection antibodies were added along with 2% goat and rabbit serum to block and incubated same as above. Plates were washed a further three times before addition of 150 μL 2X Read buffer and read immediately on the SI6000 instrument (MSD). For soluble protein levels, a BCA protein kit (Thermofisher) was used. The cytokine concentrations (pg/mL) were normalized to the total protein levels for each sample. [Bassel et. al., BMC Veterinary Research (2020) 16:168]
Therefore, a fresh whole bovine blood assay was developed with LPS as a stimulant (TLR-4 agonist) and with IL-1β and TNF-α as the read-out. Compounds of the invention were evaluated against a positive control for their ability to inhibit LPS-induced IL-1β and TNF-α as an overall evaluation of relative potency and modulation of target pathways.
For M9, the top dose of 500 μM was not high enough to determine an overstimulation of IL-1 B which was recorded as not applicable (n/a). The enhanced response indicates increased concentration of IL-1β cytokine at the drug concentration indicated. This is generally observed when compounds are out of range (high concentration) and stimulate a cellular toxicity signal. Further data supporting this hypothesis includes murine studies using a P. multocida infection in mice.
TNFα is a cell signaling protein, cytokine, that plays a key role in both acute and chronic inflammation. […]

| Compound | IC50 (TNF-α) | IC50 (IL-6) | minimal effective concentration (IL-1β) |
| --- | --- | --- | --- |
| CCCNC[C@]1(O)[C@H](C)O[C@@H](O[C@H]2[C@H](C)[C@@H](O[C@@H]3O[C@H](C)C[C@H](N(C)S(=O)(=O)N(C)c4ccccc4)[C@H]3O)[C@](C)(O)C[C@@H](C)CN[C@H](C)[C@@H](O)[C@](C)(O)[C@@H](CC)OC(=O)[C@@H]2C)C[C@@]1(C)OC [Example B-57] | 5 µM | 8 µM | 16 µM |
| CCCNC[C@]1(O)[C@H](C)O[C@@H](O[C@H]2[C@H](C)[C@@H](O[C@@H]3O[C@H](C)C[C@H](N(C)S(=O)(=O)N(C)Cc4ccccc4)[C@H]3O)[C@](C)(O)C[C@@H](C)CN[C@H](C)[C@@H](O)[C@](C)(O)[C@@H](CC)OC(=O)[C@@H]2C)C[C@@]1(C)OC [Example B-44] | 13 µM | 9 µM | 3 µM |
| CC[C@H]1OC(=O)[C@H](C)[C@@H](O)[C@H](C)[C@@H](O[C@@H]2O[C@H](C)C[C@H](N(C)S(=O)(=O)c3ccc(N4CCOCC4)nc3)[C@H]2Oc2ccc(F)cc2)[C@](C)(O)C[C@@H](C)CN[C@H](C)[C@@H](O)[C@]1(C)O [Example A-21] | 16 µM | 16 µM | 16 µM |
| CC[C@H]1OC(=O)[C@H](C)[C@@H](O)[C@H](C)[C@@H](O[C@@H]2O[C@H](C)C[C@H](N(C)S(=O)(=O)C3CC3)[C@H]2Oc2ccccc2)[C@](C)(O)C[C@@H](C)CN[C@H](C)[C@@H](O)[C@]1(C)O [Example A-32] |  | 167 µM | 100 µM |
| CC[C@H]1OC(=O)[C@H](C)[C@@H](O[C@H]2C[C@@](C)(OC)[C@](O)(CNCCC3CCOCC3)[C@H](C)O2)[C@H](C)[C@@H](O[C@@H]2O[C@H](C)C[C@H](N(C)S(=O)(=O)c3ccc(Cl)cc3)[C@H]2O)[C@](C)(O)C[C@@H](C)CN[C@H](C)[C@@H](O)[C@]1(C)O [Example B-34] |  | 20 µM | 6 µM |
| CC[C@H]1OC(=O)[C@H](C)[C@@H](O[C@H]2C[C@@](C)(OC)[C@](O)(CNCCc3ccncc3)[C@H](C)O2)[C@H](C)[C@@H](O[C@@H]2O[C@H](C)C[C@H](N(C)S(=O)(=O)c3ccc(Cl)cc3)[C@H]2O)[C@](C)(O)C[C@@H](C)CN[C@H](C)[C@@H](O)[C@]1(C)O [Example B-29] |  | 54 µM | 12 µM |
| CCCNC[C@]1(O)[C@H](C)O[C@@H](O[C@H]2[C@H](C)[C@@H](O[C@@H]3O[C@H](C)C[C@H](N(C)S(=O)(=O)c4cnc(Cl)c(Br)c4)[C@H]3Oc3ccc(OC)cc3)[C@](C)(O)C[C@@H](C)CN[C@H](C)[C@@H](O)[C@](C)(O)[C@@H](CC)OC(=O)[C@@H]2C)C[C@@]1(C)OC [Example B-117] |  | 142 µM | 16 µM |
| CC[C@H]1OC(=O)[C@H](C)[C@@H](O)[C@H](C)[C@@H](O[C@@H]2O[C@H](C)C[C@H](N(C)S(=O)(=O)c3ccccc3)[C@H]2Oc2ccc(F)c(C(F)(F)F)c2)[C@](C)(O)C[C@@H](C)CN(C)[C@H](C)[C@@H](O)[C@]1(C)O [Example A-2] | 28 µM |  | 40 µM |
| CC[C@H]1OC(=O)[C@H](C)[C@@H](O[C@H]2C[C@@](C)(OC)[C@](O)(CNCCCN3CCCCC3)[C@H](C)O2)[C@H](C)[C@@H](O[C@@H]2O[C@H](C)C[C@H](N(C)S(=O)(=O)Nc3ccc(C(F)(F)F)cc3)[C@H]2O)[C@](C)(O)C[C@@H](C)CN[C@H](C)[C@@H](O)[C@]1(C)O [Example B-75] | 31 µM |  | >250 µM |
| CCCNC[C@]1(O)[C@H](C)O[C@@H](O[C@H]2[C@H](C)[C@@H](O[C@@H]3O[C@H](C)C[C@H](N(C)S(=O)(=O)c4cnc5ccsc5c4)[C@H]3O)[C@](C)(O)C[C@@H](C)CN[C@H](C)[C@@H](O)[C@](C)(O)[C@@H](CC)OC(=O)[C@@H]2C)C[C@@]1(C)OC [Example B-9] | 55 µM |  | 40 µM |

Continued, in another order:

| IC50 (TNF-α) | IC50 (IL-6) | Compound | minimal effective concentration (IL-1β) |
| --- | --- | --- | --- |
|  | 4 µM | CCCNC[C@]1(O)[C@H](C)O[C@@H](O[C@H]2[C@H](C)[C@@H](O[C@@H]3O[C@H](C)C[C@H](N(C)S(=O)(=O)c4cccnc4Cl)[C@H]3Oc3ccc(OC)cc3)[C@](C)(O)C[C@@H](C)CN[C@H](C)[C@@H](O)[C@](C)(O)[C@@H](CC)OC(=O)[C@@H]2C)C[C@@]1(C)OC [Example B-124] | 6 µM |
|  | 24 µM | CC[C@H]1OC(=O)[C@H](C)[C@@H](O[C@H]2C[C@@](C)(OC)[C@](O)(CN3CCCCC3)[C@H](C)O2)[C@H](C)[C@@H](O[C@@H]2O[C@H](C)C[C@H](N(C)S(=O)(=O)Nc3ccccc3)[C@H]2O)[C@](C)(O)C[C@@H](C)CN(CC)[C@H](C)[C@@H](O)[C@]1(C)O [Example C-20] | 10 µM |
|  | 4 µM | CCCNC[C@]1(O)[C@H](C)O[C@@H](O[C@H]2[C@H](C)[C@@H](O[C@@H]3O[C@H](C)C[C@H](N(C)S(=O)(=O)c4cnn(-c5ccc(C(F)(F)F)cn5)c4)[C@H]3Oc3ccc(OC)cc3)[C@](C)(O)C[C@@H](C)CN[C@H](C)[C@@H](O)[C@](C)(O)[C@@H](CC)OC(=O)[C@@H]2C)C[C@@]1(C)OC [Example B-123] | 6 µM |
|  | 4 µM | CCCN([C@H]1C[C@@H](C)O[C@@H](O[C@@H]2[C@@H](C)[C@H](O[C@H]3C[C@@](C)(OC)[C@](O)(CN4CCCCC4)[C@H](C)O3)[C@@H](C)C(=O)O[C@H](CC)[C@@](C)(O)[C@H](O)[C@@H](C)NC[C@H](C)C[C@@]2(C)O)[C@@H]1O)S(=O)(=O)c1ccc(OC)cc1 [Example C-41] | >250 µM |
|  | 24 µM | CCCNC[C@]1(O)[C@H](C)O[C@@H](O[C@H]2[C@H](C)[C@@H](O[C@@H]3O[C@H](C)C[C@H](N(C)S(=O)(=O)c4ccccc4)[C@H]3Oc3cccc(CO)c3)[C@](C)(O)C[C@@H](C)CN[C@H](C)[C@@H](O)[C@](C)(O)[C@@H](CC)OC(=O)[C@@H]2C)C[C@@]1(C)OC [Example B-133] | 16 µM |
|  | 31 µM | CC[C@H]1OC(=O)[C@H](C)[C@@H](O[C@H]2C[C@@](C)(OC)[C@](O)(Cn3ccnc3)[C@H](C)O2)[C@H](C)[C@@H](O[C@@H]2O[C@H](C)C[C@H](N(C)S(=O)(=O)c3ccc(Cl)cc3)[C@H]2O)[C@](C)(O)C[C@@H](C)CN[C@H](C)[C@@H](O)[C@]1(C)O [Example C-5] | 16 µM |
| 10 µM |  | CC[C@H]1OC(=O)[C@H](C)[C@@H](O[C@H]2C[C@@](C)(OC)[C@](O)(CNCCOC(F)(F)F)[C@H](C)O2)[C@H](C)[C@@H](O[C@@H]2O[C@H](C)C[C@H](N(C)S(=O)(=O)Nc3ccc(C(F)(F)F)cc3)[C@H]2O)[C@](C)(O)C[C@@H](C)CN[C@H](C)[C@@H](O)[C@]1(C)O [Example B-129] | 2 µM |
|  | 13 µM | CC[C@H]1OC(=O)[C@H](C)[C@@H](O[C@H]2C[C@@](C)(OC)[C@](O)(CN3CCC3)[C@H](C)O2)[C@H](C)[C@@H](O[C@@H]2O[C@H](C)C[C@H](N(C)S(=O)(=O)c3ccc(Cl)cc3)[C@H]2O)[C@](C)(O)C[C@@H](C)CN[C@H](C)[C@@H](O)[C@]1(C)O [Example C-2] | 6 µM |
| 68 µM |  | CC[C@H]1OC(=O)[C@H](C)[C@@H](O[C@H]2C[C@@](C)(OC)[C@](O)(CNCCS(C)(=O)=O)[C@H](C)O2)[C@H](C)[C@@H](O[C@@H]2O[C@H](C)C[C@H](N(C)S(=O)(=O)c3ccc(C(F)(F)F)cc3)[C@H]2O)[C@](C)(O)C[C@@H](C)CN[C@H](C)[C@@H](O)[C@]1(C)O [Example B-126] | 11 µM |

Source: patent US20250236616A1, “IMMUNOMODULATING AZALIDES” (Zoetis Services LLC, priority 2021, published 2025)
